Molecular target: T1, ALK2 (Homo sapiens, UniProt Q04771)
T1 construct: purchased ThermoFisher Scientific (Life Technologies)
T1 sequence (Q04771 21-509): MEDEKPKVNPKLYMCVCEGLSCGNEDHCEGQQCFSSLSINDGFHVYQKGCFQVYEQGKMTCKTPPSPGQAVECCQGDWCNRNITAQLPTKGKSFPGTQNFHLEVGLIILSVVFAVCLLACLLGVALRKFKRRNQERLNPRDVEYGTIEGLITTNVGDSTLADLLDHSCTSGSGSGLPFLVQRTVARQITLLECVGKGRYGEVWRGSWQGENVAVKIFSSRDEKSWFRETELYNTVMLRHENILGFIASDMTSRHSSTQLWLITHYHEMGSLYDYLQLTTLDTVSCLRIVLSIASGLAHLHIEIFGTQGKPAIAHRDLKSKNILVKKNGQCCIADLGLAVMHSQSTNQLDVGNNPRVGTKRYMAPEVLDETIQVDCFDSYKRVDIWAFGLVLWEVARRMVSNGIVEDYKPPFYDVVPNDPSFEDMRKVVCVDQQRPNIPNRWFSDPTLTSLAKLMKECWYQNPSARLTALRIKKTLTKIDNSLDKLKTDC
Assay: LanthaScreen Eu Kinase Binding Assay, ALK2 inhibition
Details: 1 micromolar concentration
Description: Biochemical assays to measure the inhibitory effects of the compounds were performed by ThermoFisher Scientific (Life Technologies). ALK2 inhibition was tested using LanthaScreen™ Eu Kinase Binding Assay screening protocol.

| Structure (SMILES) | inhibition at 1 µM [%] |
| --- | --- |
| COc1cc(-n2cnc(Nc3nc(CC4CC4)nc4c3cnn4C3CC3)c2)cc(OC)c1OC [Compound 122e, 1-cyclopropyl-6-(cyclopropylmethyl)-N-(1-(3,4,5-trimethoxyphenyl)-1H-imidazol-4-yl)-1H-pyrazolo[3,4-d]pyrimidin-4-amine] | > 50 |
| COc1cc(-n2cnc(Nc3nc(CC4CC4)nc4c3cnn4C34CC(C3)C4)c2)cc(OC)c1OC [Compound 123e, 1-(bicyclo[1.1.1]pentan-1-yl)-6-(cyclopropylmethyl)-N-(1-(3,4,5-trimethoxyphenyl)-1H-imidazol-4-yl)-1H-pyrazolo[3,4-d]pyrimidin-4-amine] | > 50 |
| CCn1ncc2c(Nc3cn(-c4cc(OC)c(OC)c(OC)c4)cn3)nc(CC3CC3)nc21 [Compound 124e, 6-(cyclopropylmethyl)-1-ethyl-N-(1-(3,4,5-trimethoxyphenyl)-1H-imidazol-4-yl)-1H-pyrazolo[3,4-d]pyrimidin-4-amine] | > 50 |
| COc1cc(-n2cnc(Nc3nc(CC4CC4)nc4c3cnn4C)c2)cc(OC)c1OC [Compound 125e, 6-(cyclopropylmethyl)-1-methyl-N-(1-(3,4,5-trimethoxyphenyl)-1H-imidazol-4-yl)-1H-pyrazolo[3,4-d]pyrimidin-4-amine] | > 50 |
| COc1cc(-n2cnc(Nc3nc(CC4CC4)nc4c3cnn4CC(C)C)c2)cc(OC)c1OC [Compound 126e, 6-(cyclopropylmethyl)-1-isobutyl-N-(1-(3,4,5-trimethoxyphenyl)-1H-imidazol-4-yl)-1H-pyrazolo[3,4-d]pyrimidin-4-amine] | > 50 |
| COc1cc(-n2cnc(Nc3nc(CC(C)C)nc4c3CCC4)c2)cc(OC)c1OC [Compound 127b, 2-isobutyl-N-(1-(3,4,5-trimethoxyphenyl)-1H-imidazol-4-yl)-6,7-dihydro-5H-cyclopenta[d]pyrimidin-4-amine] | > 50 |

Source: patent publication US20240270750A1, “IMIDAZOLE-CONTAINING INHIBITORS OF ALK2 KINASE” (BioCryst Pharmaceuticals, Inc., priority 2021, published 2024)
